Laboratory results as given in patent publication US6451736B1, “Substituted aromatic thiocarboxylic acid amides and their use as herbicides” (Bayer Aktiengesellschaft, priority 1994, dated 2002).

Key:
Assay type in all cases: in vivo
Abuthilon [1] = assay: Pre-emergence test/greenhouse; settings: Table B, after three weeks
Procedure: (§1) To produce a suitable preparation of active compound, 1 part by weight of active compound is mixed with the stated amount of solvent, the stated amount of emulsifier is added and the concentrate is diluted with water to the desired concentration.
(§2) Seeds of the test plants are sown in normal soil and, after 24 hours, watered with the preparation of active compound. It is expedient to keep constant the amount of water per unit area. The concentration of the active compound in the preparation is of no importance, only the amount of active compound applied per unit area being decisive. After three weeks, the degree of damage to the plants is rated in % damage in comparison to the development of the untreated control. The figures denote:
(§3) 0%=no action (like untreated control)

Wheat [2] = assay: Pre-emergence test/greenhouse; settings: Table B, after three weeks
Procedure: as §1, §2, §3

Chenopodium [3] = assay: Pre-emergence test/greenhouse; settings: Table B, after three weeks
Procedure: as §1, §2, §3

Maize [4] = assay: Pre-emergence test/greenhouse; settings: Table B, after three weeks
Procedure: as §1, §2, §3

Solanum [5] = assay: Pre-emergence test/greenhouse; settings: Table B, after three weeks
Procedure: as §1, §2, §3

Portulaca = assay: Pre-emergence test/greenhouse; settings: Table B, after three weeks
Procedure: as §1, §2, §3

Matricaria = assay: Pre-emergence test/greenhouse; settings: Table B, after three weeks
Procedure: as §1, §2, §3

Amaranthus [6] = assay: Pre-emergence test/greenhouse; settings: Table B, after three weeks
Procedure: as §1, §2, §3

Abuthilon [7] = assay: Post-emergence test/greenhouse; settings: Table C, after three weeks
Procedure: as §1
(§4) Test plants which have a height of 5-15 cm are sprayed with the preparation of active compound in such a way as to apply the particular amounts of active compound desired per unit area. After three weeks, the degree of damage to the plants is rated in % damage in comparison to the development of the untreated control.
(§5) 0%=no action (like intreated control)

Wheat [8] = assay: Post-emergence test/greenhouse; settings: Table C, after three weeks
Procedure: as §1, §4, §5

Chenopodium [9] = assay: Post-emergence test/greenhouse; settings: Table C, after three weeks
Procedure: as §1, §4, §5

Maize [10] = assay: Post-emergence test/greenhouse; settings: Table C, after three weeks
Procedure: as §1, §4, §5

Veronica = assay: Post-emergence test/greenhouse; settings: Table C, after three weeks
Procedure: as §1, §4, §5

Solanum [11] = assay: Post-emergence test/greenhouse; settings: Table C, after three weeks
Procedure: as §1, §4, §5

Amaranthus [12] = assay: Post-emergence test/greenhouse; settings: Table C, after three weeks
Procedure: as §1, §4, §5

CC(C)Oc1cc(-n2nc3n(c2=O)CCCC3)c(F)cc1C(N)=S [Example 17]
degree of damage, Abuthilon (Abuthilon [1]; 30 g/ha): 100% | degree of damage, Wheat (Wheat [2]; 30 g/ha): 0% | degree of damage, Chenopodium (Chenopodium [3]; 30 g/ha): 100% | degree of damage, Maize (Maize [4]; 30 g/ha): 0% | degree of damage, Solanum (Solanum [5]; 30 g/ha): 100% | degree of damage, Portulaca (Portulaca; 30 g/ha): 100% | degree of damage, Matricaria (Matricaria; 30 g/ha): 100% | degree of damage, Amaranthus (Amaranthus [6]; 30 g/ha): 100% | degree of damage, Abuthilon (Abuthilon [7]; 8 g/ha): 100% | degree of damage, Wheat (Wheat [8]; 8 g/ha): 10% | degree of damage, Chenopodium (Chenopodium [9]; 8 g/ha): 95% | degree of damage, Maize (Maize [10]; 8 g/ha): 10% | degree of damage, Veronica (Veronica; 8 g/ha): 100% | degree of damage, Solanum (Solanum [11]; 8 g/ha): 100% | degree of damage, Amaranthus (Amaranthus [12]; 8 g/ha): 100%

CCS(=O)(=O)Nc1cc(-n2c(=O)cc(C(F)(F)F)n(C)c2=S)c(F)cc1C(N)=S [Example 21]
degree of damage, Abuthilon (Abuthilon [1]; 60 g/ha): 100% | degree of damage, Wheat (Wheat [2]; 60 g/ha): 0% | degree of damage, Chenopodium (Chenopodium [3]; 60 g/ha): 100% | degree of damage, Maize (Maize [4]; 60 g/ha): 0% | degree of damage, Solanum (Solanum [5]; 60 g/ha): 100% | degree of damage, Portulaca (Portulaca; 60 g/ha): 100% | degree of damage, Matricaria (Matricaria; 60 g/ha): 100% | degree of damage, Amaranthus (Amaranthus [6]; 60 g/ha): 100% | degree of damage, Abuthilon (Abuthilon [7]; 4 g/ha): 90% | degree of damage, Wheat (Wheat [8]; 4 g/ha): 5% | degree of damage, Chenopodium (Chenopodium [9]; 4 g/ha): 70% | degree of damage, Maize (Maize [10]; 4 g/ha): 60% | degree of damage, Veronica (Veronica; 4 g/ha): 100% | degree of damage, Solanum (Solanum [11]; 4 g/ha): 100% | degree of damage, Amaranthus (Amaranthus [12]; 4 g/ha): 100%

CCS(=O)(=O)Nc1cc(N2C(=O)C(C)=C(C)C2=O)c(F)cc1C(N)=S [Example 22]
degree of damage, Abuthilon (Abuthilon [1]; 250 g/ha): 100% | degree of damage, Wheat (Wheat [2]; 250 g/ha): 0% | degree of damage, Chenopodium (Chenopodium [3]; 250 g/ha): 100% | degree of damage, Maize (Maize [4]; 250 g/ha): 20% | degree of damage, Solanum (Solanum [5]; 250 g/ha): 100% | degree of damage, Portulaca (Portulaca; 250 g/ha): 95% | degree of damage, Matricaria (Matricaria; 250 g/ha): 100% | degree of damage, Amaranthus (Amaranthus [6]; 250 g/ha): 100% | degree of damage, Abuthilon (Abuthilon [7]; 30 g/ha): 100% | degree of damage, Wheat (Wheat [8]; 30 g/ha): 15% | degree of damage, Chenopodium (Chenopodium [9]; 30 g/ha): 40% | degree of damage, Maize (Maize [10]; 30 g/ha): 0% | degree of damage, Veronica (Veronica; 30 g/ha): 20% | degree of damage, Solanum (Solanum [11]; 30 g/ha): 100% | degree of damage, Amaranthus (Amaranthus [12]; 30 g/ha): 100%

CCS(=O)(=O)Nc1cc(N2C(=O)C3=C(CCCC3)C2=O)c(F)cc1C(N)=S [Example 23]
degree of damage, Abuthilon (Abuthilon [1]; 60 g/ha): 95% | degree of damage, Wheat (Wheat [2]; 60 g/ha): 0% | degree of damage, Chenopodium (Chenopodium [3]; 60 g/ha): 95% | degree of damage, Maize (Maize [4]; 60 g/ha): 0% | degree of damage, Solanum (Solanum [5]; 60 g/ha): 70% | degree of damage, Portulaca (Portulaca; 60 g/ha): 95% | degree of damage, Matricaria (Matricaria; 60 g/ha): 100% | degree of damage, Amaranthus (Amaranthus [6]; 60 g/ha): 70% | degree of damage, Abuthilon (Abuthilon [7]; 30 g/ha): 95% | degree of damage, Wheat (Wheat [8]; 30 g/ha): 0% | degree of damage, Chenopodium (Chenopodium [9]; 30 g/ha): 90% | degree of damage, Maize (Maize [10]; 30 g/ha): 50% | degree of damage, Veronica (Veronica; 30 g/ha): 100% | degree of damage, Solanum (Solanum [11]; 30 g/ha): 100%

Cn1c(C(F)(F)F)cc(=O)n(-c2cc(NS(C)(=O)=O)c(C(N)=S)cc2F)c1=S [Example 26]
degree of damage, Abuthilon (Abuthilon [1]; 60 g/ha): 100% | degree of damage, Wheat (Wheat [2]; 60 g/ha): 0% | degree of damage, Chenopodium (Chenopodium [3]; 60 g/ha): 100% | degree of damage, Maize (Maize [4]; 60 g/ha): 0% | degree of damage, Solanum (Solanum [5]; 60 g/ha): 90% | degree of damage, Portulaca (Portulaca; 60 g/ha): 100% | degree of damage, Matricaria (Matricaria; 60 g/ha): 100% | degree of damage, Amaranthus (Amaranthus [6]; 60 g/ha): 80% | degree of damage, Abuthilon (Abuthilon [7]; 15 g/ha): 50% | degree of damage, Wheat (Wheat [8]; 15 g/ha): 0% | degree of damage, Chenopodium (Chenopodium [9]; 15 g/ha): 50% | degree of damage, Maize (Maize [10]; 15 g/ha): 30% | degree of damage, Veronica (Veronica; 15 g/ha): 100% | degree of damage, Solanum (Solanum [11]; 15 g/ha): 50% | degree of damage, Amaranthus (Amaranthus [12]; 15 g/ha): 90%

C#CC(C)Oc1cc(-n2nc(C(F)(F)F)n(C)c2=O)c(F)cc1C(N)=S (stereo not drawn) [Example 32]
degree of damage, Wheat (Wheat [2]; 30 g/ha): 10% | degree of damage, Chenopodium (Chenopodium [3]; 30 g/ha): 100% | degree of damage, Maize (Maize [4]; 30 g/ha): 0% | degree of damage, Solanum (Solanum [5]; 30 g/ha): 100% | degree of damage, Portulaca (Portulaca; 30 g/ha): 95% | degree of damage, Matricaria (Matricaria; 30 g/ha): 100% | degree of damage, Amaranthus (Amaranthus [6]; 30 g/ha): 100% | degree of damage, Abuthilon (Abuthilon [7]; 4 g/ha): 100% | degree of damage, Wheat (Wheat [8]; 4 g/ha): 15% | degree of damage, Chenopodium (Chenopodium [9]; 4 g/ha): 95% | degree of damage, Maize (Maize [10]; 4 g/ha): 30% | degree of damage, Veronica (Veronica; 4 g/ha): 100% | degree of damage, Solanum (Solanum [11]; 4 g/ha): 100% | degree of damage, Amaranthus (Amaranthus [12]; 4 g/ha): 100%

COCCOCCOc1cc(-n2nc(C)n(C(F)F)c2=O)c(F)cc1C(N)=S [Example 51]
degree of damage, Abuthilon (Abuthilon [1]; 30 g/ha): 100% | degree of damage, Wheat (Wheat [2]; 30 g/ha): 0% | degree of damage, Chenopodium (Chenopodium [3]; 30 g/ha): 100% | degree of damage, Maize (Maize [4]; 30 g/ha): 20% | degree of damage, Solanum (Solanum [5]; 30 g/ha): 100% | degree of damage, Portulaca (Portulaca; 30 g/ha): 100% | degree of damage, Matricaria (Matricaria; 30 g/ha): 95% | degree of damage, Abuthilon (Abuthilon [7]; 15 g/ha): 100% | degree of damage, Wheat (Wheat [8]; 15 g/ha): 15% | degree of damage, Chenopodium (Chenopodium [9]; 15 g/ha): 70% | degree of damage, Maize (Maize [10]; 15 g/ha): 60% | degree of damage, Veronica (Veronica; 15 g/ha): 100% | degree of damage, Solanum (Solanum [11]; 15 g/ha): 100% | degree of damage, Amaranthus (Amaranthus [12]; 15 g/ha): 100%
